This is an account of results in patent publication US8435744B2 (priority 2005, dated 2013).

Test [1] concerns the target PrP^Sc from infected N2a58/22L cells (Mus musculus, UniProt P04925). Format: cell-based, murine.
The target in test [2] is PrP^Sc content in the cells (Mus musculus, UniProt P04925). To be noted: read-out: IC50 (concentration for which 50% of the PrP^Sc content in the cells is inhibited); cited from earlier work.
Test [3] has as its target PrP^C from uninfected N2a58 cells (Mus musculus, UniProt P04925). Type of test: cell-based, murine. To be noted: uninfected cells, 1 to 10 μM, FIG. 3.
The mark [4] stands for this setting: prolonged incubation up to 14 days, 5 and 20 μM, FIG. 4.

pIC50: −log10 of the molar value. Read-outs that look alike come from different tables or passages of the source.

PrP^Sc from infected N2a58/22L cells, sequence (P04925 23-230 limits assumed): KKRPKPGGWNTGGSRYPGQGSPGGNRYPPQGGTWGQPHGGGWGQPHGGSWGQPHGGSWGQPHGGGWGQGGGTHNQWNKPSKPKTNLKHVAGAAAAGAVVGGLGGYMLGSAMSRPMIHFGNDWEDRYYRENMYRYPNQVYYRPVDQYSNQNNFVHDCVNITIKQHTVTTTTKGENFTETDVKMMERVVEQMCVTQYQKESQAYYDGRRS
PrP^Sc content in the cells, sequence (P04925 23-230 limits assumed): as above
PrP^C from uninfected N2a58 cells, sequence (P04925 23-230 limits assumed): as above

For `Nc1nccc(-c2ccc(-c3cccs3)s2)n1` [compound B, 4-(5-thienyl-2-thienyl)-2-(amino)-pyrimidine], in test [1] (14 days, 20 μM, FIG. 6), the “amount of oligomeric forms observed compared with compound A” value is “much greater than for the compound A”. In test [1] (N2a58/22L cells, 3 days, 5 to 20 μM), the “amount of oligomeric forms of PrP^Sc at 5 μM versus higher concentrations” value was “identical to that observed for the concentration of 10 or 20 μM”. In test [1] (incubation period of 14 days), the “amplification capacity, comparative kinetics between compounds B and A” value is on record as “greater amplification capacity”.
Take `N#Cc1c(N)nc(Sc2ccccc2N)c(C#N)c1-c1ccco1` [2-amino-6-[(2-aminophenyl)thio]-4-(2-furyl)pyridine-3,5-dicarbonitrile]: the pIC50 in test [2] was approximately 4.82.
As to `CSc1nccc(-c2ccc(Br)s2)n1` [compound A, 4-(5-bromo-2-thienyl)-2-(methylthio)pyrimidine], the figures for the “time at which the state of equilibrium of amplified oligomeric forms is reached” value in test [1] (5 μM) and in test [1] (20 μM) were 11 days and 3 days, respectively. Further, the “increase in the signal on the oligomeric forms compared with an untreated control” value in test [1] (20 μM, N2a58/22L cells, immunoblot after PK) is given as “approximately 90 fold”. Moreover, the “effect on the amount of PrP^Sc in the infected cells” value in test [1] (infected cells, immunoblotting after proteinase K, FIGS. 1 and 2) was “notably increases the amount of PrP^Sc”. Moreover, in test [1] (setting [4]), the “appearance of oligomeric forms of greater size than those observed over 3 days” value is listed as “does not induce the appearance of oligomeric forms having a size greater”. Moreover, the “depletion of monomeric form PrP^Sc27-30 to the benefit of oligomeric forms around 50-60 kDa” value in test [1] (setting [4]) is on record as “No depletion”. The “oligomerization of PrP^C in the cells” value in test [3] is on record as “does not increase the oligomerization of PrP^C”.
In the case of `COc1ccc(S(=O)(=O)NNC(=O)c2ccc(Cn3cnc(Cl)c3Cl)o2)cc1` [N′-1-({5-[(4,5-dichloro-1H-imidazol-1-yl)methyl]-2-furyl}carbonyl)-4-methoxybenzene-1-sulfonohydrazide], in test [2], the pIC50 is approximately 4.82.
